For one molecule, Activity results are on record in ChEMBL document CHEMBL5042483, “Discovery and Mechanism of SARS-CoV-2 Main Protease Inhibitors” (J Med Chem, 2022).

SMILES strings stand for the structures. Active and inactive are the calls of the source. The rule behind the calls is not given here.

Assay [1] has as its system SARS-CoV-2. As to the kind of experiment: Antiviral activity against SARS-CoV-2 USA_WA1/2020 infected in human iPSC derived lung organoids assessed as reduction in viral RNA in cell supernatant at 5 uM pretreated for 2 hrs with compound followed by viral infection for 2 hrs then followed by washout and replacement with fresh medium and measured after 72 hrs by qRT-PCR analysis relative to control. The format is functional, organism-based. To be noted: Severe acute respiratory syndrome coronavirus 2, time 76.0 hrs. A general note: Real-time PCR tracks product formation cycle by cycle.

Assay [2] concerns SARS-CoV-2. In words: Antiviral activity against SARS-CoV-2 USA_WA1/2020 infected in human iPSC derived lung organoids assessed as reduction in viral RNA in intracellular fraction at 5 uM pretreated for 2 hrs with compound followed by viral infection for 2 hrs then followed by washout and replacement with fresh medium and measured after 72 hrs by qRT-PCR analysis relative to control. The format is functional, organism-based. To be noted: Severe acute respiratory syndrome coronavirus 2, time 76.0 hrs.

`O=c1c2ccccc2[se]n1-c1cccc(C(F)(F)F)c1`: the result in assay [1] and in assay [2] was Active.
